Results reported in patent US20140135310A1, “SULPHONAMIDE DERIVATIVES OF ALICYCLIC AMINES FOR THE TREATMENT OF CENTRAL NERVOUS SYSTEM DISEASES” (Adamed Sp. z o.o., priority 2011, published 2014).

Key:
[1] = target: T1, hERG potassium channels (KCNH2 gene, expressed in CHO cells) (Homo sapiens, UniProt Q12809); assay: Ability to block hERG potassium channel (electrophysiology, IonWorks Quattro); format: cell-based; settings: % block of hERG current, test compound 1×10^−5 M
T1 construct: expressed in transfected cells; host or cells: CHO cells
Experimental: Moreover, the ability of the compounds of the invention to block potassium channel hERG was tested.
Ability to block hERG potassium channels was determined using the electrophysiological method and cloned hERG potassium channels (KCNH2 gene, expressed in CHO cells) as biological material. The effects were evaluated using IonWorks™ Quattro system (MDS-AT).
hERG current was elicited using a pulse pattern with fixed amplitudes (conditioning pre-pulse: −80 mV for 25 ms; test pulse: +40 mV for 80 ms) from a holding potential of 0 mV. hERG current was measured as a difference between the peak current at 1 ms after the test step to +40 mV and the steady-state current at the end of the step to +40 mV.
Data acquisition and analyses was performed using the IonWorks Quattro™ system operation software (version 2.0.2; Molecular Devices Corporation, Union City, Calif.). Data were corrected for leak current.
The hERG block was calculated as:
% Block=(1−ITA/IControl)×100%,
where IControl and ITA were the currents elicited by the test pulse in control and in the presence of a test article, respectively.
Concentration-response data for the blocks were fit to an equation of the following form:
% Block=% VC+{(% PC−% VC)−(% PC−% VC)/[1+([Test]/IC50)N]},

[2] = target: T2, 5-HT reuptake (rat brain synaptosomes) (Rattus norvegicus, UniProt P31652); assay: 5-HT reuptake, [3H]5-HT incorporation into rat brain synaptosomes; format: biochemical; settings: 15 min/37° C., read-out: SERT IC50
T2 construct: measuring [^3H]5-HT incorporation into rat brain synaptosomes; from tissue; host or cells: rat brain synaptosomes
Experimental: 5-HT reuptake was tested according to Perovic, S. and Muller, W.E.G. (1995) Arzneim-Forsch. Drug Res., 45: 1145-1148 by measuring [^3H]5-HT incorporation into rat brain synaptosomes. Assay conditions are as follows:
Tracer: [^3H]5-HT (0.2 μCi/ml)
Incubation: 15 min/37° C.

T1 sequence (Q12809 whole entry): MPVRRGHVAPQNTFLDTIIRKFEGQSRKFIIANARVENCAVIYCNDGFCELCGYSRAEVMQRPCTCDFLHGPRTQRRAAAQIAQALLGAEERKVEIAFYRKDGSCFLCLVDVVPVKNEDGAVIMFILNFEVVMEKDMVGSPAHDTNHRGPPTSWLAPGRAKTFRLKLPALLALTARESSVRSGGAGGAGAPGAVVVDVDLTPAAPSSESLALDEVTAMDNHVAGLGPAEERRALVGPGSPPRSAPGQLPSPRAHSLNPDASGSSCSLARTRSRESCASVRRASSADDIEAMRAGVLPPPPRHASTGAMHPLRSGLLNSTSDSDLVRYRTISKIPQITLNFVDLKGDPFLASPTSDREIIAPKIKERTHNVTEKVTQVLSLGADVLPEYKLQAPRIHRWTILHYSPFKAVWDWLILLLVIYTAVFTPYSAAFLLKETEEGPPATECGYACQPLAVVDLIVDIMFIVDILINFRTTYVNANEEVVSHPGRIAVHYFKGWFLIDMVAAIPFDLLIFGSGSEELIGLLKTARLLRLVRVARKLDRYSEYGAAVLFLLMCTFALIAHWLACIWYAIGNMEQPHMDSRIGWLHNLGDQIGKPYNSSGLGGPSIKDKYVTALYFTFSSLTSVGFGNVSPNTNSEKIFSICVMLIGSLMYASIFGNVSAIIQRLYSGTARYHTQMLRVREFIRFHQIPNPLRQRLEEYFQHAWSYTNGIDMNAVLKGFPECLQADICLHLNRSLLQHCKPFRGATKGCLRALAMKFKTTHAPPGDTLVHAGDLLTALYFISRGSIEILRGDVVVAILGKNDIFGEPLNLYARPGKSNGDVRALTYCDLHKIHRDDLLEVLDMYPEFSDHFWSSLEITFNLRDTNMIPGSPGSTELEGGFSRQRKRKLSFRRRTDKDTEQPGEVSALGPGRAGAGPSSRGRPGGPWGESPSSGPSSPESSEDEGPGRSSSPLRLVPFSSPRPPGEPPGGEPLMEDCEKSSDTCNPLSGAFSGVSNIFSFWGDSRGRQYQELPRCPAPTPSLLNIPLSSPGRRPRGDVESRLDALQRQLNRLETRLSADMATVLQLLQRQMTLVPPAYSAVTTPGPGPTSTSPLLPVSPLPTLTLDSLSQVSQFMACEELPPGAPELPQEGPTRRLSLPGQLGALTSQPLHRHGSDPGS
T2 sequence (P31652 whole entry): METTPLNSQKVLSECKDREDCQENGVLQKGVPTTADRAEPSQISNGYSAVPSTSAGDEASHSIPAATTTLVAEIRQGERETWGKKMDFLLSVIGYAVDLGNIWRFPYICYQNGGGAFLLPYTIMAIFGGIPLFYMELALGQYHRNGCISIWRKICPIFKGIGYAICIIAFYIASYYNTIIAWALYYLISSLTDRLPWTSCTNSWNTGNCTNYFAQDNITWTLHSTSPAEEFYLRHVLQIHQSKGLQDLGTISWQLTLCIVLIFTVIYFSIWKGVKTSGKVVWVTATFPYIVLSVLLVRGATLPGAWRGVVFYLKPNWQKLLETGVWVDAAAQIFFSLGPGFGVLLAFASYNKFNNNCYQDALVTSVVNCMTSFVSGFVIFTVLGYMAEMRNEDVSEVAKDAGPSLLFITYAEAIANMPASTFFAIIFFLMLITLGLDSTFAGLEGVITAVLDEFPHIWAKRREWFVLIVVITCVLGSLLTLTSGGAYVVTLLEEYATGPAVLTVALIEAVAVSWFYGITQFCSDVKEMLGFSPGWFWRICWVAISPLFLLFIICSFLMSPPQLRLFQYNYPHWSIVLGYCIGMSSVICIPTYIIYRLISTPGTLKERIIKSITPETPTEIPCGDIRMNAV

In the case of `O=S(=O)(NC1CCN(CCCc2noc3cc(F)ccc23)CC1)c1cccc2ccccc12` [Compound 34, N-[1-[3-(6-Fluoro-1,2-benzoxazol-3-yl)propyl]-4-piperidine]-naphthalene-1-sulphonamide], the “hERG [%]” value [1] is reported as −1.1%.

Work on `O=S(=O)(NC1CCN(CCCc2c[nH]c3ccc(Cl)cc23)C1)c1cccc(Cl)c1` (stereo not shown) [Compound 84, 3-Chloro-N-[1-[3-(5-chloro-1H-indol-3-yl)propyl]pyrrolidin-3-yl]benzenesulphonamide] yielded an IC50 [2] of 64 nM.

With `O=S(=O)(NC1CN(CCOc2cccc3c2OCCO3)C1)c1cccc2ccccc12` [Compound 94, N-[1-[2-(2,3-Dihydro-1,4-benzodioxan-8-yloxy)ethyl]azetidin-3-yl]-naphthalene-1-sulphonamide] the “hERG [%]” value [1] was 4.8%.

`O=S(=O)(NC1CCN(CCCc2noc3cc(F)ccc23)C1)c1ccc2ccccc2c1` (stereo not shown) [Compound 21, N-[1-[3-(6-Fluoro-1,2-benzoxazol-3-yl)propyl]pyrrolidin-3-yl]naphthalene-2-sulphonamide] was tested, and the “hERG [%]” value [1] was 3.3%.

With `O=S(=O)(NC1CCN(CCCc2noc3cc(F)ccc23)C1)c1csc2ccccc12` (stereo not shown) [Compound 26, N-[1-[3-(6-Fluoro-1,2-benzoxazol-3-yl)propyl]pyrrolidin-3-yl]-benzothiophene-3-sulphonamide] the “hERG [%]” value [1] was 6.1%.

For `O=S(=O)(NC1CCN(CCCc2c[nH]c3ccc(F)cc23)C1)c1ccc2ccccc2c1` (stereo not shown) [Compound 80, N-[1-[3-(5-Fluoro-1H-indol-3-yl)propyl]pyrrolidin-3-yl]naphthalene-2-sulphonamide], the IC50 [2] was 2.1 nM.

For `O=S(=O)(NC1CCN(CCCc2noc3cc(F)ccc23)C1)c1cc2ccccc2s1` (stereo not shown) [Compound 25, N-[1-[3-(6-Fluoro-1,2-benzoxazol-3-yl)propyl]pyrrolidin-3-yl]-benzothiophene-2-sulphonamide], the “hERG [%]” value [1] was 2.9%.
